As a reminder, the melting point is the temperature, or range, at which the solid turns liquid.

Where a name gives a salt, the structure may show the parent alone.

Take `Cc1ccc(C(NC(=O)Cc2ccc3[nH]cc(C(=O)CS(C)(=O)=O)c3c2)c2ccc(C)o2)c(N2CCCCC2)c1` (stereo not shown) (as salt: HCl) [Cpd. 103, 2-[3-(2-methanesulfonylacetyl)-1H-indol-5-yl]-N-{[4-methyl-2-(piperidin-1-yl)phenyl](5-methylfuran-2-yl)methyl}acetamide]: the melting point worked out at 139 °C.
As for `Cc1ccc(C(NC(=O)Cc2ccc3[nH]cc(C(=O)CS(C)(=O)=O)c3c2)c2ccc(C)o2)c(Br)c1` (stereo not shown) (as salt: HCl) [Cpd. 104, N-[(2-bromo-4-methylphenyl)(5-methylfuran-2-yl)methyl]-2-[3-(2-methanesulfonylacetyl)-1H-indol-5-yl]acetamide], the figure is 206 °C; as for `Cc1ccc(C(NC(=O)Cc2ccc3[nH]cc(C(=O)CS(C)(=O)=O)c3c2)c2ccc(C)o2)c(C)c1` (stereo not shown) (as salt: HCl) [Cpd. 107, N-[(2,4-dimethylphenyl)(5-methylfuran-2-yl)methyl]-2-[3-(2-methanesulfonylacetyl)-1H-indol-5-yl]acetamide], 213 °C; as for `Cc1ccc(C(NC(=O)C2(c3ccc4[nH]ccc4c3)CC2)c2ccc(C)o2)c(C)c1` (stereo not shown) (as salt: HCl) [Cpd. 108, N-[(2,4-dimethylphenyl)(5-methylfuran-2-yl)methyl]-1-(1H-indol-5-yl)cyclopropane-1-carboxamide], 62 °C.
The same measure for `COc1ccc(C(NC(=O)Cc2ccc3c(ccn3CCC(=O)OC(C)(C)C)c2)c2ccc(C)o2)c(N2CCCCCC2)c1` (stereo not shown) (as salt: HCl) [Cpd. 110, tert-butyl 3-{5-[({[2-(azepan-1-yl)-4-methoxyphenyl](5-methylfuran-2-yl)methyl}carbamoyl)methyl]-1H-indol-1-yl}propanoate]: 57 °C; for `Cc1ccc(C(NC(=O)Cc2ccc3ccn(C(=O)N4CCOCC4)c3c2)c2ccc(C)o2)c(N2CCCCC2)c1` (stereo not shown) (as salt: HCl) [Cpd. 114, N-{[4-methyl-2-(piperidin-1-yl)phenyl](5-methylfuran-2-yl)methyl}-2-[1-(morpholine-4-carbonyl)-1H-indol-6-yl]acetamide]: 85 °C.
The same measure for `CNS(=O)(=O)c1c[nH]c2ccc(CC(=O)NC(c3ccc(C)o3)c3ccc(C)cc3N3CCCCC3)cc12` (stereo not shown) (as salt: HCl) [Cpd. 115, N-{[4-methyl-2-(piperidin-1-yl)phenyl](5-methylfuran-2-yl)methyl}-2-[3-(methylsulfamoyl)-1H-indol-5-yl]acetamide]: 119 °C.
As for `Cc1ccc(C(NC(=O)Cc2ccc3[nH]cc(C(=O)N4CCOCC4)c3c2)c2ccc(C)o2)c(N2CCCCC2)c1` (stereo not shown) (as salt: HCl) [Cpd. 120, N-{[4-methyl-2-(piperidin-1-yl)phenyl](5-methylfuran-2-yl)methyl}-2-[3-(morpholine-4-carbonyl)-1H-indol-5-yl]acetamide], the melting point turned out to be 124 °C.
The same measure for `COCC(=O)N1Cc2ccc(C3(C(=O)NC(c4ccc(C)o4)c4ccc(C)cc4C)CC3)cc2C1` (stereo not shown) (as salt: HCl) [Cpd. 122, N-[(2,4-dimethylphenyl)(5-methylfuran-2-yl)methyl]-1-[2-(2-methoxyacetyl)-2,3-dihydro-1H-isoindol-5-yl]cyclopropane-1-carboxamide]: 55 °C; for `Cc1ccc(C(NC(=O)Cc2ccc3c(c2)CCN3C(=O)C2CC2)c2ccc(C)o2)c(N2CCCCC2)c1` (stereo not shown) (as salt: HCl) [Cpd. 123, 2-(1-cyclopropanecarbonyl-2,3-dihydro-1H-indol-5-yl)-N-{[4-methyl-2-(piperidin-1-yl)phenyl](5-methylfuran-2-yl)methyl}acetamide]: 94 °C.
The same measure for `Cc1ccc(C(NC(=O)C2(c3ccc4c(c3)OCS(=O)(=O)N4)CC2)c2ccc(C)o2)c(C)c1` (stereo not shown) (as salt: HCl) [Cpd. 124, N-[(2,4-dimethylphenyl)(5-methylfuran-2-yl)methyl]-1-(2,2-dioxo-1,3-dihydro-4,2,1-benzoxathiazin-6-yl)cyclopropane-1-carboxamide]: 96 °C.
In turn, `Cc1ccc(C(NC(=O)C2(c3ccc4c(c3)C(=O)C(=O)N4)CC2)c2ccc(C)o2)c(C)c1` (stereo not shown) (as salt: HCl) [Cpd. 125, N-[(2,4-dimethylphenyl)(5-methylfuran-2-yl)methyl]-1-(2,3-dioxo-2,3-dihydro-1H-indol-5-yl)cyclopropane-1-carboxamide] gave a melting point of 192 °C.
The same measure for `CC(=O)N1CCc2cc(C3(C(=O)NC(c4ccc(C)o4)c4ccc(C)cc4C)CC3)ccc21` (stereo not shown) (as salt: HCl) [Cpd. 126, 1-(1-acetyl-2,3-dihydro-1H-indol-5-yl)-N-[(2,4-dimethylphenyl)(5-methylfuran-2-yl)methyl]cyclopropane-1-carboxamide]: 75 °C; for `CC(=O)N1Cc2ccc(C3(C(=O)NC(c4ccc(C)o4)c4ccc(C)cc4C)CC3)cc2C1` (stereo not shown) (as salt: HCl) [Cpd. 127, 1-(2-acetyl-2,3-dihydro-1H-isoindol-5-yl)-N-[(2,4-dimethylphenyl)(5-methylfuran-2-yl)methyl]cyclopropane-1-carboxamide]: 72 °C; for `Cc1ccc(C(NC(=O)C2(c3ccc4c(c3)CC(=O)N4C)CC2)c2ccc(C)o2)c(C)c1` (stereo not shown) (as salt: HCl) [Cpd. 130, N-[(2,4-dimethylphenyl)(5-methylfuran-2-yl)methyl]-1-(1-methyl-2-oxo-2,3-dihydro-1H-indol-5-yl)cyclopropane-1-carboxamide]: 72 °C.
In the case of `CCN1c2ccc(C3(C(=O)NC(c4ccc(C)o4)c4ccc(C)cc4C)CC3)cc2CS1(=O)=O` (stereo not shown) (as salt: HCl) [Cpd. 132, N-[(2,4-dimethylphenyl)(5-methylfuran-2-yl)methyl]-1-(1-ethyl-2,2-dioxo-1,3-dihydro-2,1-benzothiazol-5-yl)cyclopropane-1-carboxamide], the melting point was found to be 68 °C.
As for `Cc1ccc(C(NC(=O)C2(c3ccc4c(c3)CS(=O)(=O)N4C)CC2)c2ccc(C)o2)c(N(C)C)c1` (stereo not shown) (as salt: HCl) [Cpd. 133, N-{[2-(dimethylamino)-4-methylphenyl](5-methylfuran-2-yl)methyl}-1-(1-methyl-2,2-dioxo-1,3-dihydro-2,1-benzothiazol-5-yl)cyclopropane-1-carboxamide], the figure is 73 °C.
As for `Cc1ccc(C(NC(=O)C2(c3ccc4c(c3)OCC(=O)N4)CC2)c2ccc(C)o2)c(Br)c1` (stereo not shown) (as salt: HCl) [Cpd. 135, N-[(2-bromo-4-methylphenyl)(5-methylfuran-2-yl)methyl]-1-(3-oxo-3,4-dihydro-2H-1,4-benzoxazin-7-yl)cyclopropane-1-carboxamide], the figure is 82 °C; as for `Cc1ccc(C(NC(=O)C2(c3ccc4c(c3)OCC(=O)N4)CC2)c2cccc(C)n2)c(C)c1` (stereo not shown) (as salt: HCl) [Cpd. 136, N-[(2,4-dimethylphenyl)(6-methylpyridin-2-yl)methyl]-1-(3-oxo-3,4-dihydro-2H-1,4-benzoxazin-7-yl)cyclopropane-1-carboxamide], 94 °C.
As for `Cc1ccc(C(NC(=O)C2(c3ccc4c(c3)OCC(=O)N4)CC2)c2ccco2)c(C)c1` (stereo not shown) (as salt: HCl) [Cpd. 139, N-[(2,4-dimethylphenyl)(furan-2-yl)methyl]-1-(3-oxo-3,4-dihydro-2H-1,4-benzoxazin-7-yl)cyclopropane-1-carboxamide], the figure is 180 °C; as for `Cc1ccc(C(NC(=O)C2(c3ccc4c(c3)OCC(=O)N4)CC2)c2ccc(Cl)cc2)c(C)c1` (stereo not shown) (as salt: HCl) [Cpd. 140, N-[(4-chlorophenyl)(2,4-dimethylphenyl)methyl]-1-(3-oxo-3,4-dihydro-2H-1,4-benzoxazin-7-yl)cyclopropane-1-carboxamide], 99 °C.
On to `Cc1ccc(C(NC(=O)C2(c3ccc4c(c3)CCC4=O)CC2)c2ccc(C)o2)c(C)c1` (stereo not shown) (as salt: HCl) [Cpd. 141, N-[(2,4-dimethylphenyl)(5-methylfuran-2-yl)methyl]-1-(1-oxo-2,3-dihydro-1H-inden-5-yl)cyclopropane-1-carboxamide], for which the melting point was 56 °C.
Turning to `Cc1ccc(C(NC(=O)C2(c3ccc4c(c3)OCC(=O)N4)CC2)c2cccc(Cl)c2)c(C)c1` (stereo not shown) (as salt: HCl) [Cpd. 143, N-[(3-chlorophenyl)(2,4-dimethylphenyl)methyl]-1-(3-oxo-3,4-dihydro-2H-1,4-benzoxazin-7-yl)cyclopropane-1-carboxamide], the melting point was 181 °C.
The same measure for `Cc1ccc(C(NC(=O)C2(c3ccc4c(n3)OCC(=O)N4)CC2)c2ccc(C)o2)c(C)c1` (stereo not shown) (as salt: HCl) [Cpd. 144, N-[(2,4-dimethylphenyl)(5-methylfuran-2-yl)methyl]-1-{2-oxo-1H,2H,3H-pyrido[2,3-b][1,4]oxazin-6-yl}cyclopropane-1-carboxamide]: 84 °C.
As for `Cc1ccc(C(NC(=O)C2(c3ccc4c(c3)OCC(=O)N4)CC2)c2ccc(Cl)o2)c(N2CCCCC2)c1` (stereo not shown) (as salt: HCl) [Cpd. 145, N-[(5-chlorofuran-2-yl)[4-methyl-2-(piperidin-1-yl)phenyl]methyl]-1-(3-oxo-3,4-dihydro-2H-1,4-benzoxazin-7-yl)cyclopropane-1-carboxamide], the figure is 199 °C; as for `Cc1ccc(C(NC(=O)C2(c3ccc4c(c3)C(C)(C)C(=O)N4)CC2)c2ccc(C)o2)c(C)c1` (stereo not shown) (as salt: HCl) [Cpd. 146, 1-(3,3-dimethyl-2-oxo-2,3-dihydro-1H-indol-5-yl)-N-[(2,4-dimethylphenyl)(5-methylfuran-2-yl)methyl]cyclopropane-1-carboxamide], 82 °C; as for `COc1ccc(C(NC(=O)C2(c3ccc4c(c3)OCS(=O)(=O)N4)CC2)c2ccc(C)o2)c(Br)c1` (stereo not shown) (as salt: HCl) [Cpd. 147, N-[(2-bromo-4-methoxyphenyl)(5-methylfuran-2-yl)methyl]-1-(2,2-dioxo-1,3-dihydro-4,2,1-benzoxathiazin-6-yl)cyclopropane-1-carboxamide], 115 °C.
The same measure for `Cc1ccc(C(NC(=O)C2(c3ccc4c(c3)OCS(=O)(=O)N4)CC2)c2ccc(C)o2)c(N(C)C)c1` (stereo not shown) (as salt: HCl) [Cpd. 148, N-{[2-(dimethylamino)-4-methylphenyl](5-methylfuran-2-yl)methyl}-1-(2,2-dioxo-1,3-dihydro-4,2,1-benzoxathiazin-6-yl)cyclopropane-1-carboxamide]: 105 °C.

The record behind these values is patent US11052092B2, “N-{[2-(piperidin-1-yl)phenyl](phenyl)methyl}-2-(3-oxo-3,4-dihydro-2H-1,4-benzoxazin-7-yl)acetamide derivatives and related compounds as ROR-gamma modulators for treating autoimmune diseases” (Genfit, priority 2017, dated 2021).
